PubChem BioAssay (NCI)
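Compound exposure: 48 hours, 5 concentrations, 96-well plates. The concentration for 50% growth inhibition is given as GI50. TGI is the concentration that stops growth completely.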

Key:
Assay in all cases: NCI-60 cell line screen, 48 h
786-0 renal = tested on: 786-0 renal
A498 renal = tested on: A498 renal
A549 NSCLC = tested on: A549 NSCLC
ACHN renal = tested on: ACHN renal
BT-549 breast = tested on: BT-549 breast
CAKI-1 renal = tested on: CAKI-1 renal
CCRF-CEM leukemia = tested on: CCRF-CEM leukemia
COLO 205 colon = tested on: COLO 205 colon
DU-145 prostate = tested on: DU-145 prostate
EKVX NSCLC = tested on: EKVX NSCLC
HCC-2998 colon = tested on: HCC-2998 colon
HCT-116 colon = tested on: HCT-116 colon
HCT-15 colon = tested on: HCT-15 colon
HL-60(TB) leukemia = tested on: HL-60(TB) leukemia
HOP-62 NSCLC = tested on: HOP-62 NSCLC
HOP-92 NSCLC = tested on: HOP-92 NSCLC
HS 578T breast = tested on: HS 578T breast
HT29 colon = tested on: HT29 colon
IGROV1 ovarian = tested on: IGROV1 ovarian
K-562 leukemia = tested on: K-562 leukemia
KM12 colon = tested on: KM12 colon
M14 melanoma = tested on: M14 melanoma
MCF7 breast = tested on: MCF7 breast
MDA-MB-231 breast = tested on: MDA-MB-231 breast
MDA-MB-435 = tested on: MDA-MB-435
MOLT-4 leukemia = tested on: MOLT-4 leukemia
NCI-H226 lung = tested on: NCI-H226 lung
NCI-H23 lung = tested on: NCI-H23 lung
NCI-H460 lung = tested on: NCI-H460 lung
NCI-H522 lung = tested on: NCI-H522 lung
NCI/ADR-RES ovarian = tested on: NCI/ADR-RES ovarian
OVCAR-3 ovarian = tested on: OVCAR-3 ovarian
OVCAR-4 ovarian = tested on: OVCAR-4 ovarian
OVCAR-5 ovarian = tested on: OVCAR-5 ovarian
OVCAR-8 ovarian = tested on: OVCAR-8 ovarian
PC-3 prostate = tested on: PC-3 prostate
RPMI-8226 leukemia = tested on: RPMI-8226 leukemia
SF-268 CNS = tested on: SF-268 CNS
SF-295 CNS = tested on: SF-295 CNS
SF-539 CNS = tested on: SF-539 CNS
SK-MEL-2 melanoma = tested on: SK-MEL-2 melanoma
SK-MEL-28 melanoma = tested on: SK-MEL-28 melanoma
SK-MEL-5 melanoma = tested on: SK-MEL-5 melanoma
SK-OV-3 ovarian = tested on: SK-OV-3 ovarian
SN12C renal = tested on: SN12C renal
SNB-19 CNS = tested on: SNB-19 CNS
SNB-75 CNS = tested on: SNB-75 CNS
SR leukemia = tested on: SR leukemia
SW-620 colon = tested on: SW-620 colon
T-47D breast = tested on: T-47D breast
TK-10 renal = tested on: TK-10 renal
U251 CNS = tested on: U251 CNS
UACC-257 melanoma = tested on: UACC-257 melanoma
UACC-62 melanoma = tested on: UACC-62 melanoma
UO-31 renal = tested on: UO-31 renal

O=C(Nc1ccc(-n2cc(-c3ccncc3)c(-c3ccc(Cl)c(O)c3)n2)cc1)c1ccc(Cl)c(Cl)c1
GI50 (786-0 renal): 1.78 µM
TGI (786-0 renal): 4.3 µM
GI50 (A498 renal): 35.7 µM
TGI (A498 renal): > 100 µM
GI50 (A549 NSCLC): 6.71 µM
TGI (A549 NSCLC): > 100 µM
GI50 (ACHN renal): 4.2 µM
TGI (ACHN renal): > 100 µM
GI50 (BT-549 breast): 5.04 µM
TGI (BT-549 breast): > 100 µM
GI50 (CAKI-1 renal): 3.67 µM
TGI (CAKI-1 renal): 21.3 µM
GI50 (CCRF-CEM leukemia): 4.52 µM
TGI (CCRF-CEM leukemia): > 100 µM
GI50 (COLO 205 colon): 4.3 µM
TGI (COLO 205 colon): > 100 µM
GI50 (DU-145 prostate): > 100 µM
TGI (DU-145 prostate): > 100 µM
GI50 (EKVX NSCLC): 5.81 µM
TGI (EKVX NSCLC): > 100 µM
GI50 (HCC-2998 colon): 3.43 µM
TGI (HCC-2998 colon): 19.7 µM
GI50 (HCT-116 colon): 2.89 µM
TGI (HCT-116 colon): > 100 µM
GI50 (HCT-15 colon): 1.12 µM
TGI (HCT-15 colon): > 100 µM
GI50 (HL-60(TB) leukemia): 2.97 µM
TGI (HL-60(TB) leukemia): 6.35 µM
GI50 (HOP-62 NSCLC): 0.711 µM
TGI (HOP-62 NSCLC): 2.65 µM
GI50 (HOP-92 NSCLC): 8.97 µM
TGI (HOP-92 NSCLC): > 100 µM
GI50 (HS 578T breast): 3.83 µM
TGI (HS 578T breast): > 100 µM
GI50 (HT29 colon): 2.6 µM
TGI (HT29 colon): > 100 µM
GI50 (IGROV1 ovarian): > 100 µM
TGI (IGROV1 ovarian): > 100 µM
GI50 (K-562 leukemia): 1.32 µM
TGI (K-562 leukemia): > 100 µM
GI50 (KM12 colon): 3.05 µM
TGI (KM12 colon): > 100 µM
GI50 (M14 melanoma): 2.35 µM
TGI (M14 melanoma): 7.56 µM
GI50 (MCF7 breast): 4.63 µM
TGI (MCF7 breast): > 100 µM
GI50 (MDA-MB-231 breast): 1.17 µM
TGI (MDA-MB-231 breast): > 100 µM
GI50 (MDA-MB-435): 2.73 µM
TGI (MDA-MB-435): > 100 µM
GI50 (MOLT-4 leukemia): 4.02 µM
TGI (MOLT-4 leukemia): > 100 µM
GI50 (NCI-H226 lung): 26.1 µM
TGI (NCI-H226 lung): > 100 µM
GI50 (NCI-H23 lung): 4.18 µM
TGI (NCI-H23 lung): > 100 µM
GI50 (NCI-H460 lung): 3.09 µM
TGI (NCI-H460 lung): > 100 µM
GI50 (NCI-H522 lung): 5.34 µM
TGI (NCI-H522 lung): > 100 µM
GI50 (NCI/ADR-RES ovarian): 4.91 µM
TGI (NCI/ADR-RES ovarian): > 100 µM
GI50 (OVCAR-3 ovarian): > 100 µM
TGI (OVCAR-3 ovarian): > 100 µM
GI50 (OVCAR-4 ovarian): > 100 µM
TGI (OVCAR-4 ovarian): > 100 µM
GI50 (OVCAR-5 ovarian): 10.2 µM
TGI (OVCAR-5 ovarian): > 100 µM
GI50 (OVCAR-8 ovarian): 4.68 µM
TGI (OVCAR-8 ovarian): > 100 µM
GI50 (PC-3 prostate): 4.18 µM
TGI (PC-3 prostate): > 100 µM
GI50 (RPMI-8226 leukemia): 0.736 µM
TGI (RPMI-8226 leukemia): 3.47 µM
GI50 (SF-268 CNS): > 100 µM
TGI (SF-268 CNS): > 100 µM
GI50 (SF-295 CNS): 1.01 µM
TGI (SF-295 CNS): 2.77 µM
GI50 (SF-539 CNS): 0.694 µM
TGI (SF-539 CNS): > 100 µM
GI50 (SK-MEL-2 melanoma): 4.05 µM
TGI (SK-MEL-2 melanoma): > 100 µM
GI50 (SK-MEL-28 melanoma): 2.94 µM
TGI (SK-MEL-28 melanoma): > 100 µM
GI50 (SK-MEL-5 melanoma): 1.15 µM
TGI (SK-MEL-5 melanoma): 2.43 µM
GI50 (SK-OV-3 ovarian): 2.08 µM
TGI (SK-OV-3 ovarian): > 100 µM
GI50 (SN12C renal): 5.7 µM
TGI (SN12C renal): > 100 µM
GI50 (SNB-19 CNS): > 100 µM
TGI (SNB-19 CNS): > 100 µM
GI50 (SNB-75 CNS): 3.92 µM
TGI (SNB-75 CNS): > 100 µM
GI50 (SR leukemia): 3.6 µM
TGI (SR leukemia): > 100 µM
GI50 (SW-620 colon): 4.42 µM
TGI (SW-620 colon): > 100 µM
GI50 (T-47D breast): 8.09 µM
TGI (T-47D breast): > 100 µM
GI50 (TK-10 renal): > 100 µM
TGI (TK-10 renal): > 100 µM
GI50 (U251 CNS): 2.65 µM
TGI (U251 CNS): > 100 µM
GI50 (UACC-257 melanoma): 4.74 µM
TGI (UACC-257 melanoma): > 100 µM
GI50 (UACC-62 melanoma): 3.22 µM
TGI (UACC-62 melanoma): 22.4 µM
GI50 (UO-31 renal): 2.83 µM
TGI (UO-31 renal): 8.62 µM
